According to publication PMC10331597 (Redox Biology, 2023):

Target: Keap1 (Homo sapiens, UniProt Q14145)
Assay: Fluorescence anisotropy assay
Assay type: binding
Conditions: for Kd: Keap1-Nrf2 binding affinity, fluorescence anisotropy assay, duplicated experiment, average; for activity in Keap1-Nrf2 fluorescence anisotropy assay: at 10 μM

Sequence of Keap1 (Q14145 whole entry): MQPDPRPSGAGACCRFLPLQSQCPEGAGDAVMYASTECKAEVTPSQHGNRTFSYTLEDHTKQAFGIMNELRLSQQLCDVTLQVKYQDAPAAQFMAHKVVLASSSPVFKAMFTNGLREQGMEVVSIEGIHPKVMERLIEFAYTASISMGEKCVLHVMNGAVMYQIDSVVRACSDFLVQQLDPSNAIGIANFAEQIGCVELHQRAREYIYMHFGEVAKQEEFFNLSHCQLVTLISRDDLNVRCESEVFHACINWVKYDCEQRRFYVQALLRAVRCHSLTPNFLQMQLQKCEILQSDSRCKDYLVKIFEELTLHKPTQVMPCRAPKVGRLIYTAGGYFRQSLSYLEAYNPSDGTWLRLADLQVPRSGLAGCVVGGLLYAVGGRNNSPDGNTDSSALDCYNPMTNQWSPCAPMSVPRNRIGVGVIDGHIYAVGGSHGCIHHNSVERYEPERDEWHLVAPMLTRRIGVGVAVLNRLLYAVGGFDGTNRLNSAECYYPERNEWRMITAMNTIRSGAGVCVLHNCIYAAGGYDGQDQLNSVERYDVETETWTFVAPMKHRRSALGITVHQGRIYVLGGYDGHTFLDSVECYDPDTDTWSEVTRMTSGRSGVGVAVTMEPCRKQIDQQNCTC

SMILES | Kd [nM] | activity in Keap1-Nrf2 fluorescence anisotropy assay
COc1ccc(S(=O)(=O)N(CC(N)=O)c2ccc(N(CC(N)=O)S(=O)(=O)c3ccc(-c4ccccc4)cc3)c3ccccc23)cc1 [Compound A3, 2-(N-(4-((N-(2-amino-2-oxoethyl)-4-methoxyphenyl)sulfonamido)naphthalen-1-yl)-[1,1'-biphenyl]-4-sulfonamido)acetamide] | > 10000 | did not show apparent activity
COc1ccc(S(=O)(=O)N(CC(N)=O)c2ccc(N(CC(N)=O)S(=O)(=O)c3c(C)noc3C)c3ccccc23)cc1 [Compound A12, 2-((N-(4-((N-(2-amino-2-oxoethyl)-3,5-dimethylisoxazole)-4-sulfonamido)naphthalen-1-yl)-4-methoxyphenyl)sulfonamido)acetamide] | > 10000 | did not show apparent activity
COc1ccc(S(=O)(=O)N(CC(N)=O)c2ccc(N(CC(N)=O)S(=O)(=O)N3CCOCC3)c3ccccc23)cc1 [Compound A6, 2-(N-(4-((N-(2-amino-2-oxoethyl)-4-methoxyphenyl)sulfonamido)naphthalen-1-yl)morpholine-4-sulfonamido)acetamide] | 2070 | –
COc1ccc(S(=O)(=O)N(CC(N)=O)c2ccc(N(CC(N)=O)S(=O)(=O)c3cnn(C)c3)c3ccccc23)cc1 [Compound A9, 2-((N-(4-((N-(2-amino-2-oxoethyl)-1-methyl-1H-pyrazole)-4-sulfonamido)naphthalen-1-yl)-4-methoxyphenyl)sulfonamido)acetamide] | 1140 | –
COc1ccc(S(=O)(=O)N(CC(N)=O)c2ccc(N(CC(N)=O)S(=O)(=O)c3sc(N(CC(N)=O)C(C)=O)nc3C)c3ccccc23)cc1 [Compound A7, N-(2-amino-2-oxoethyl)-N-(5-(N-(2-amino-2-oxoethyl)-N-(4-((N-(2-amino-2-oxoethyl)-4-methoxy-phenyl)sulfonamido)naphthalen-1-yl)sulfamoyl)-4-methylthiazol-2-yl)acetamide] | 1430 | –

More lines, now with the values ahead:

Kd [nM] | activity in Keap1-Nrf2 fluorescence anisotropy assay | SMILES
1110 | – | COc1ccc(S(=O)(=O)N(CC(N)=O)c2ccc(N(CC(N)=O)S(=O)(=O)c3cccs3)c3ccccc23)cc1 [Compound A4, 2-(N-(4-((N-(2-amino-2-oxoethyl)-4-methoxyphenyl)sulfonamido)naphthalen-1-yl)thiophene-2-sulfonamido)acetamide]
1280 | – | COc1ccc(S(=O)(=O)N(CC(N)=O)c2ccc(N(CC(N)=O)S(=O)(=O)c3ccc4c(c3)CCO4)c3ccccc23)cc1 [Compound A11, 2-((N-(4-((N-(2-amino-2-oxoethyl)-2,3-dihydrobenzofuran)-5-sulfonamido)naphthalen-1-yl)-4-methoxyphenyl)sulfonamido)acetamide]
1300 | – | COc1ccc(S(=O)(=O)N(CC(N)=O)c2ccc(N(CC(N)=O)S(=O)(=O)c3ccc4ccccc4c3)c3ccccc23)cc1 [Compound A2, 2-(N-(4-((N-(2-amino-2-oxoethyl)-4-methoxyphenyl)sulfonamido)naphthalen-1-yl)naphthalene-2-sulfonamido)acetamide]
> 10000 | did not show apparent activity | COc1ccc(S(=O)(=O)N(CC(N)=O)c2ccc(N(CC(N)=O)S(=O)(=O)c3ccc(Cl)nc3)c3ccccc23)cc1 [Compound A5, 2-((N-(4-((N-(2-amino-2-oxoethyl)-4-methoxyphenyl)sulfonamido)naphthalen-1-yl)-6-chloropyridine)-3-sulfonamido)acetamide]
> 10000 | did not show apparent activity | COc1ccc(S(=O)(=O)N(CC(N)=O)c2ccc(N(CC(N)=O)S(=O)(=O)c3sc4ccc(Cl)cc4c3C)c3ccccc23)cc1 [Compound A13, 2-((N-(4-((N-(2-amino-2-oxoethyl)-4-methoxyphenyl)sulfonamido)naphthalen-1-yl)-5-chloro-3-methylbenzo[b]thiophene)-2-sulfonamido)acetamide]
3270 | – | COc1ccc(S(=O)(=O)N(CC(N)=O)c2ccc(N(CC(N)=O)S(=O)(=O)c3c(C)c(C)c4c(c3C)CC(C)(C)O4)c3ccccc23)cc1 [Compound A10, 2-((N-(4-((N-(2-amino-2-oxoethyl)-2,2,4,6,7-pentamethyl-2,3-dihydrobenzofuran)-5-sulfonamido)naphthalen-1-yl)-4-methoxyphenyl)sulfonamido)acetamide]
> 10000 | did not show apparent activity | COc1ccc(S(=O)(=O)N(CC(N)=O)c2ccc(N(CC(N)=O)S(=O)(=O)c3cccc4ccccc34)c3ccccc23)cc1 [Compound A1, 2-(N-(4-((N-(2-amino-2-oxoethyl)-4-methoxyphenyl)sulfonamido)naphthalen-1-yl)naphthalene-1-sulfonamido)acetamide]
1150 | – | COc1ccc(S(=O)(=O)N(CC(N)=O)c2ccc(N(CC(N)=O)S(=O)(=O)c3cn(C)cn3)c3ccccc23)cc1 [Compound A8, 2-((N-(4-((N-(2-amino-2-oxoethyl)-1-methyl-1H-imidazole)-4-sulfonamido)naphthalen-1-yl)-4-methoxyphenyl)sulfonamido)acetamide]
